Laboratory results: publication PMC11783063, “Design, synthesis, and apoptotic antiproliferative action of new benzimidazole/1,2,3-triazole hybrids as EGFR inhibitors” (Frontiers in Chemistry, 2025)
Like-named read-outs stand apart in the source and are kept apart here.

Experiments:
[1] = tested on: four human cancer cell lines (HT-29, A-549, MCF-7, Panc-1); assay: Antiproliferative assay, mean over four cancer cell lines (GI50); conditions: for IC50: read-out: Average IC50 (GI50)
Description: To calculate the total nuclear DNA, a fluorescent dye (propidium iodide, PI) is used which can attach to the DNA, thus offering a quick and precise technique. PI cannot pass through the cell membrane and its signal intensity can be considered as directly proportional to quantity of cellular DNA. Cells whose cell membranes are damaged or have changed permeability are counted as dead ones. […] The medium was removed; the compounds were added to the plates at 10 µM concentrations (in 0.1% DMSO) in triplicates, followed by incubation for 48 h. DMSO (0.1%) was used as control. After incubation, medium was removed followed by the addition of PI (25 µl, 50µg/mL in water/medium) to each well of the plates. At -80 °C, the plates were allowed to freeze for 24 h, followed by thawing at 25 °C. A fluorometer (Polar-Star BMG Tech) was used to record the readings at excitation and emission wavelengths of 530 and 620 nm for each well. The percentage cytotoxicity of compounds was calculated using the following formula:

[2] = tested on: Panc-1 (pancreatic cancer cell line); assay: Antiproliferative assay, Panc-1; type: cell-based, human; conditions: read-out: Antiproliferative activity IC50 ± SEM, Panc-1
Source text: (§1) Refer to Supplementary Appendix A for more information.
(§2) DMSO (0.1%) was used as control.

[3] = tested on: A-549 (lung cancer cell line); assay: Antiproliferative assay, A-549; type: cell-based, human; conditions: read-out: Antiproliferative activity IC50 ± SEM, A-549
Source text: as §1, §2

EGFR [4] = target: T1, EGFR (Homo sapiens, UniProt P00533); assay: EGFR-TK inhibitory assay
Description: To record autophosphorylation level, EGFR kinase assay was carried out on the basis of DELFIA/Time-Resolved Fluorometry. […] Each compound (10 µL) was incubated with recombinant enzyme (10 µL, 5 ng for EGFR, 1:80 dilution in 100 mM HEPES) for 10 min at 25 °C, subsequent to the addition of 5X buffer (10 µL, containing 2 mM MnCl2, 100 µM Na3VO4, 20 mM HEPES and 1 mM DTT) and ATP-MgCl2 (20 µL, containing 0.1 mM ATP and 50 mM MgCl2) and incubation for 1h. The negative and positive controls were included in each plate by the incubation of enzyme either with or without ATP-MgCl2. The liquid was removed after incubation and the plates were washed thrice using wash buffer. Europium-tagged antiphosphotyrosine antibody (75 µL, 400 ng) was added to each well followed by incubation of 1h and then washing of the plates using buffer. […] The autophosphorylation percentage inhibition by compounds was calculated using the following equation:

[5] = Cell viability assay (MTT) on MCF-10A normal cells; conditions: human, MCF-10A normal mammary gland epithelial cells
Description: (§7) The medium in which cells were propagated contained Dulbecco's modified Eagle's medium (DMEM)/ Ham's F-12 medium (1:1) supplemented with epidermal growth factor (20 ng/mL), hydrocortisone (500 ng/mL), insulin (10 μg/mL), 2 mM glutamine and 10% foetal calf serum. After every 2-3 days, the cells were passed using trypsin ethylenediamine tetra acetic acid (EDTA). The cells were seeded at a density of 10^4 cells mL^-1 in flat-bottomed culture plates containing 96 wells each. After 24 h, medium was removed from the plates and the compounds in (in 0.1% DMSO) were added (in 200 μL medium to yield a final concentration of 0.1% v/v) to the wells of plates. A single compound was designated with four wells followed by incubation of plates for 96h at 37°C. After incubation, medium was removed completely from the plates followed by addition of MTT (0.4 mg/mL in medium) to each well and subsequent incubation of plates for 3h. MTT (along with the medium) was removed and DMSO (150μL) was added to each well of the culture plates, followed by vortexing and subsequent measurement of absorbance (at 540 nm) using microplate reader.

[6] = tested on: MCF-7 (breast cancer cell line); assay: Antiproliferative assay, MCF-7; type: cell-based, human; conditions: read-out: Antiproliferative activity IC50 ± SEM, MCF-7
Source text: as §1, §2

[7] = tested on: HT-29 (colon cancer cell line); assay: Antiproliferative assay, HT-29; type: cell-based, human; conditions: read-out: Antiproliferative activity IC50 ± SEM, HT-29
Source text: as §1, §2

Bax = Bax activation assay in MCF-7 cells; type: cell-based, human
Description: (§3) The current study supplied compounds 6i and 10e to breast (MCF-7) cancer cell lines at their respective IC50 values. This led to a notable elevation of pro-apoptotic Bax expression, with a fold increase of 34 for compound 6i and 36 for compound 10e.
(§4) Compounds 6i and 10e were assessed for their ability to activate caspase-3, caspase-8, and Bax, as well as to downregulate the anti-apoptotic protein Bcl2 in the MCF-7 breast cancer cell line ([Abdelbaset et al., 2019]). Supplementary Appendix A provides more details.
Bring all reagents, except the human Bax-α Standard, to room temperature for at least 30 minutes prior to opening. The human Bax-α Standard solution should not be left at room temperature for more than 10 minutes. All standards, controls and samples should be run in duplicate. Refer to the Assay Layout Sheet to determine the number of wells to be used and put any remaining wells with the desiccant back into the pouch and seal the ziploc. Store unused wells at 4 °C. Pipet 100 μL of Assay Buffer into the S0 (0 pg/mL standard) wells. Pipet 100 μL of Standards #1 through #6 into the appropriate wells. Pipet 100 μL of the Samples into the appropriate wells. Tap the plate gently to mix the contents. Seal the plate and incubate at room temperature on a plate shaker for 1 hour at ~500 rpm. Empty the contents of the wells and wash by adding 400 μL of wash solution to every well. Repeat the wash 4 more times for a total of 5 washes. After the final wash, empty or aspirate the wells and firmly tap the plate on a lint free paper towel to remove any remaining wash buffer. Pipet 100 μL of yellow Antibody into each well, except the Blank. Seal the plate and incubate at room temperature on a plate shaker for 1 hour at ~500 rpm. Empty the contents of the wells and wash by adding 400 μL of wash solution to every well. Repeat the wash 4 more times for a total of 5 washes. After the final wash, empty or aspirate the wells and firmly tap the plate on a lint free paper towel to remove any remaining wash buffer. Add 100 μL of blue Conjugate to each well, except the Blank. Seal the plate and incubate at room temperature on a plate shaker for 30 minutes at ~500 rpm. Empty the contents of the wells and wash by adding 400 μL of wash solution to every well. Repeat the wash 4 more times for a total of 5 washes. After the final wash, empty or aspirate the wells and firmly tap the plate on a lint free paper towel to remove any remaining wash buffer. Pipet 100 μL of Substrate Solution into each well. Incubate for 30 minutes at room temperature on a plate shaker at ~500 rpm. Pipet 100 μL Stop Solution to each well. Blank the plate reader against the Blank wells, read the optical density at 450 nm. Calculate the average net Optical Density (OD) bound for each standard and sample by subtracting the average Blank OD from the average OD for each standard and sample. Using linear graph paper, plot the Average Net OD for each standard versus Bax concentration in each standard. Approximate a straight line through the points. The concentration of Bax in the unknowns can be determined by interpolation.

caspase-8 = assay: Caspase-8 activation assay in MCF-7 cells; type: cell-based, human
Description: (§5) Cells experience apoptosis in reaction to specific signaling cues, resulting in significant modifications. […] They decompose vital cellular components, including nuclear proteins, such as DNA repair enzymes and structural proteins within the cytoskeleton, essential for optimal cellular function.
(§6) Supplementary Appendix A provides more details.
The absorbance of each microwell was read on a spectrophotometer at 450 nm. A standard curve is prepared from 7human Caspase-8 standard dilutions and human Caspase-8 concentration determined.

caspase-3 = assay: Caspase-3 activation assay in MCF-7 cells; type: cell-based, human; conditions: vs untreated control
Source text: as §5, §6
Allow all reagents to reach room temperature before use. Gently mix all liquid reagents prior to use. Determine the number of 8-well strips needed for the assay. Insert these in the frame(s) for current use. Add 100 μl of the Standard Diluent Buffer to the zero standard wells. Well(s) reserved for chromogen blank should be left empty. Add 100 μl of standards and controls or diluted samples to the appropriate microtiter wells. The sample dilution chosen should be optimized for each experimental system. Tap gently on the side of plate to mix. Cover wells with plate cover and incubate for 2 hours at room temperature. Thoroughly aspirate or decant solution from wells and discard the liquid, Wash wells 4 times. […] Tap gently on the side of the plate to mix. Cover plate with plate cover and incubate for 1 hour at room temperature. Thoroughly aspirate or decant solution from wells and discard the liquid, Wash wells 4 times. Add 100 μl Anti-Rabbit IgG HRP Working Solution to each well except the chromogen blank(s). Prepare the working dilution as described in Preparing IgG HRP. Cover wells with the plate cover and incubate for 30 minutes at room temperature. Thoroughly aspirate or decant solution from wells and discard the liquid. Wash wells 4 times. Add 100 μl of Stabilized Chromogen to each well. The liquid in the wells will begin to turn blue. Incubate for 30 minutes at room temperature and in the dark. The incubation time for chromogen substrate is often determined by the microtiter plate reader used. […] The O.D. values should be monitored, and the substrate reaction stopped before the O.D. of the positive wells exceeds the limits of the instrument. The O.D. values at 450 nm can only be read after the Stop Solution has been added to each well. […] Add 100 μl of Stop Solution to each well. Tap side of plate gently to mix. The solution in the wells should change from blue to yellow. Read the absorbance of each well at 450 nm having blanked the plate reader against a chromogen blank composed of 100 μl each of Stabilized Chromogen and Stop Solution. Read the plate within 2 hours after adding the Stop Solution. Use a curve fitting software to generate the standard curve. […] Read the concentrations for unknown samples and controls from the standard curve. Multiply value(s) obtained for sample(s) by the appropriate dilution factor to correct for the dilution in step 3.

Bcl-2 = Bcl-2 inhibition assay in MCF-7 cells; type: cell-based, human
Description: as §3, §4
Mix all the reagents thoroughly without foaming before use. Wash the microwells twice with approximately 300 μL Wash Buffer per well with thorough aspiration of microwell contents between washes. Take caution not to scratch the surface of the microwells. After the last wash, empty the wells and tap microwell strips on an absorbent pad or paper towel to remove excess Wash Buffer. Use the microwell strips immediately after washing or place upside down on a wet absorbent paper for not longer than 15 minutes. […] Add 100 μL of Sample Diluent in duplicate to all standard wells and to the blank wells. Prepare standard (1:2 dilution) in duplicate ranging from 32 ng/mL to 0.5 ng/mL. Add 100 μL of Sample Diluent, in duplicate, to the blank wells. Add 80 μL of Sample Diluent, in duplicate, to the sample wells. Add 20 μL of each Sample, in duplicate, to the designated wells. Add 50 μL of diluted biotin-conjugate to all wells, including the blank wells. Cover with a plate cover and incubate at room temperature, on a microplate shaker at 100 rpm if available, for 2 hours. Remove plate cover and empty the wells. Wash microwell strips 3 times as described in step 2. Add 100 μL of diluted Streptavidin-HRP to all wells, including the blank wells. Cover with a plate cover and incubate at room temperature, on a microplate shaker at 100 rpm if available, for 1 hour. Remove the plate cover and empty the wells. Wash microwell strips 3 times as described in step 2. Proceed to the next step. Pipette 100 μl of mixed TMB Substrate Solution to all wells, including the blanks. Incubate the microwell strips at room temperature (18° to 25°C) for about 15 minutes, if available on a rotator set at 100 rpm. Avoid direct exposure to intense light. The point, at which the substrate reaction is stopped, is often determined by the ELISA reader. Many ELISA readers record absorbance only up to 2.0 O.D. Therefore, the color development within individual microwells must be watched by the person running the assay and the substrate reaction stopped before positive wells are no longer properly detectable. Stop the enzyme reaction by quickly pipetting 100 μL of Stop Solution into each well, including the blank wells. It is important that the Stop Solution is spread quickly and uniformly throughout the microwells to completely inactivate the enzyme. Results must be read immediately after the Stop Solution is added or within one hour if the microwell strips are stored at 2 - 8°C in the dark. Read the absorbance of each microwell on a spectrophotometer using 450 nm as the primary wavelength.

[8] = tested on: leukemia subpanel of 60 human carcinoma cell lines; parameters: method as in Youssif et al., 2024; conditions: NCI five-dose, ref Youssif et al., 2024; cited from earlier work
EGFR [9] = target: T1, EGFR; parameters: method as in Ihmaid et al., 2021; conditions: ref Ihmaid et al., 2021; read-out: EGFR inhibition IC50; cited from earlier work
[10] = tested on: MCF-10A normal human mammary gland epithelial cell line; conditions: 50 µM
Description: as §7

T1 sequence (P00533 669-1210): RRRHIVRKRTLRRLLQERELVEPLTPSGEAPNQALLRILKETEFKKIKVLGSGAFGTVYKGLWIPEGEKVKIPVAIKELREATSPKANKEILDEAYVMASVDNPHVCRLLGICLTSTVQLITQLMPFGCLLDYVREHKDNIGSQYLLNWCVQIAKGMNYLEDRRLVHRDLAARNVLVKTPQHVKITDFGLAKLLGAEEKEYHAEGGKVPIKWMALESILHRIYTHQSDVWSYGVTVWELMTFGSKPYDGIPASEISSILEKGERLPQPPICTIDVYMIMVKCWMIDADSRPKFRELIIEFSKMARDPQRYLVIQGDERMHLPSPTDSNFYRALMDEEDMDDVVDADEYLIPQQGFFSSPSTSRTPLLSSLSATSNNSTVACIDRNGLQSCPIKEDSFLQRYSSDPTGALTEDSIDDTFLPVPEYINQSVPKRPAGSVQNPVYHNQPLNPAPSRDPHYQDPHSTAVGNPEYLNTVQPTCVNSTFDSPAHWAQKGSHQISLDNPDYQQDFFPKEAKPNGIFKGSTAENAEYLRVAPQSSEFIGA

## O=[N+]([O-])c1ccc(-n2cc(Cn3c(SCc4ccccc4)nc4ccccc43)nn2)cc1 [10d]
[1]; GI50 vs 10e
  Potency relative to 10e (GI50), fold less potent: 1.5 fold
[1]; Homo sapiens
  IC50: 36 nM
[2]; Homo sapiens, PANC-1
  IC50: 36 ± 3 nM
[3]; Homo sapiens, A549
  IC50: 37 ± 3 nM
EGFR [4]
  IC50: 86 ± 6 nM
[5]
  viability at 4 days, 50 µM: 89%
[6]; Homo sapiens, MCF7
  IC50: 34 ± 3 nM
[7]; Homo sapiens
  IC50: 38 ± 3 nM

## CN[C@@H]1C[C@H]2O[C@@](C)([C@@H]1OC)n1c3ccccc3c3c4c(c5c6ccccc6n2c5c31)C(=O)NC4 [Staurosporine, reference compound]
Bax; compound at its IC50
  Bax Conc: 288 ± 2 pg/mL
Bax; vs untreated control
  Bax Fold change: 32
caspase-8; compound at its IC50 concentration
  Caspase-8 Conc: 1.50 ± 0.10 ng/mL
caspase-8; vs untreated control
  Caspase-8 Fold change: 17
caspase-3
  Caspase-3 Fold change: 7
Bcl-2; compound at its IC50
  Bcl-2 Conc: 1.20 ng/mL
Bcl-2; vs untreated control
  Bcl-2 Fold reduction: 4

## O=C(N/N=C/c1ccc([N+](=O)[O-])cc1)c1ccc2[nH]c(-c3ccc(Cl)cc3)nc2c1 [I]
[8]
  Selectivity ratio towards the leukemia subpanel at the GI50 level: 5.96

## COc1ccc(-n2cc(Cn3c(SCc4ccccc4)nc4ccccc43)nn2)cc1 [10g]
[1]; Homo sapiens
  IC50: 34 nM
[2]; Homo sapiens, PANC-1
  IC50: 34 ± 3 nM
[3]; Homo sapiens, A549
  IC50: 34 ± 3 nM
EGFR [4]
  IC50: 82 ± 5 nM
[5]
  viability at 4 days, 50 µM: 90%
[6]; Homo sapiens, MCF7
  IC50: 32 ± 3 nM
[7]; Homo sapiens
  IC50: 35 ± 3 nM

## O=[N+]([O-])c1cccc(-n2cc(CSc3nc4ccccc4[nH]3)nn2)c1 [6e, 2-(((1-(3-Nitrophenyl)-1H-1,2,3-triazol-4-yl)methyl)thio)-1H-benzimidazole]
[1]; Homo sapiens
  IC50: 38 nM
[2]; Homo sapiens, PANC-1
  IC50: 38 ± 3 nM
[3]; Homo sapiens, A549
  IC50: 40 ± 3 nM
EGFR [4]
  IC50: 89 ± 6 nM
[5]
  viability at 4 days, 50 µM: 86%
[6]; Homo sapiens, MCF7
  IC50: 36 ± 3 nM
[7]; Homo sapiens
  IC50: 38 ± 3 nM

## Cc1ccc(NC(=O)Cn2cc(CN3C(=O)c4cc(Cl)c(Cl)cc4C3=O)nn2)cc1F [III]
EGFR [9]
  IC50: 79 nM

## 2-(Benzylthio)-1-((1-(p-tolyl)-1H-1,2,3-triazol-5-yl)methyl)-1H-benzimidazole [10f]
[1]; mean IC50 of A-549, MCF-7, Panc-1, HT-29
  IC50: 65 nM
[2]; Panc-1
  IC50: 65 ± 6 nM
[3]; A-549
  IC50: 66 ± 6 nM
[6]; MCF-7
  IC50: 63 ± 6 nM
[10]
  Cell viability %: 89%
[7]
  IC50: 65 ± 6 nM
